Assay [1] deals with T1, xanthine oxidase (Bos taurus, UniProt P80457).
T1 construct: purchased Sigma Chemical Company; host or cells: butter milk
Kind of assay: In vitro determination of xanthine oxidase (XOD) inhibition. The settings on record: xanthine oxidase from butter milk, xanthine substrate, pH 7.4, 37° C. It is filed as biochemical. On the procedure:
(1) Preparation of test compounds:
Test compounds (compounds of Ex. No. listed in Table 1) were dissolved in dimethylsulfoxide and diluted with a 50 mM phosphate buffer to prepare aqueous solutions respectively having predetermined concentrations.
The inhibition rate was determined by the following equation: [formula]
The inhibition (%) was determined on each test compound prepared according to (1), and the IC50 value on the xanthine oxidase (XOD) inhibition was calculated from the value of inhibition.

Assay [2] concerns interleukin 1 production. Kind of assay: Interleukin 1 production inhibitory activity (LPS, abdominal exuded macrophage, ELISA). It is filed as cell-based, BALB/c mouse. The settings on record: 10^-6 M, 1 μg/ml LPS, 24 hours, mouse macrophage. On the procedure:
1 ml of a 5% oyster glycogen solution was intra-abdominally administered to a BALB/c mouse (male, 8 weeks in age), and 4 days after the administration, the infiltrated abdominal exuded cells were adhered to a plastic dish for 2 hours, and 1 μg/ml of LPS was allowed to act on macrophage (1×10^6 cells). Interleukin 1 extricated on the supernatant in 24 hours was measured by an ELISA technique. The test compound (compounds of Ex. No. described in Table 3) was prepared so as to have a concentration of 10^-6 M, and the interleukin 1 production inhibitory activity was, expressed in terms of the percentage inhibition based on the amount of production of the control.
Background: ELISA stands for enzyme-linked immunosorbent assay.

Assay [3] has as its system serum uric acid. Kind of assay: Determination of oral administration: lowering of serum uric acid in mice. It is filed as in vivo, ICR male mice. The conditions noted are these: Mus musculus; ICR male mice, oral, 1 mg/kg, 2 hours after administration, serum; read-out: Activity of lowering uric acid. On the procedure:
Test compounds suspended in a 5% gum arabic solution was forcibly administered by oral administration (compounds of Ex. No. of Table 2, dose: 1 mg/kg) to ICR male mice (age: about 7 weeks) (one group: 6 mice) by means of an oral probe. 2 hours after the administration, thoracotomy was conducted under etherization to collect blood from the heart, and serum was removed by a conventional process. The serum uric acid was measured by a biochemical automatic analyzer (Flexigem; Electro-Nucleonics, Inc.) by using a uric acid measurement kit (UA reagent; International Reagent) to determine the percentage of the lowering of uric acid. [formula]

Each structure is given as a SMILES string.

The IC50 is the concentration that inhibits the measured activity by half. A word on the inhibition: it is how much of the control response was suppressed. Read a low inhibition as little suppression.

T1 sequence (P80457 whole entry): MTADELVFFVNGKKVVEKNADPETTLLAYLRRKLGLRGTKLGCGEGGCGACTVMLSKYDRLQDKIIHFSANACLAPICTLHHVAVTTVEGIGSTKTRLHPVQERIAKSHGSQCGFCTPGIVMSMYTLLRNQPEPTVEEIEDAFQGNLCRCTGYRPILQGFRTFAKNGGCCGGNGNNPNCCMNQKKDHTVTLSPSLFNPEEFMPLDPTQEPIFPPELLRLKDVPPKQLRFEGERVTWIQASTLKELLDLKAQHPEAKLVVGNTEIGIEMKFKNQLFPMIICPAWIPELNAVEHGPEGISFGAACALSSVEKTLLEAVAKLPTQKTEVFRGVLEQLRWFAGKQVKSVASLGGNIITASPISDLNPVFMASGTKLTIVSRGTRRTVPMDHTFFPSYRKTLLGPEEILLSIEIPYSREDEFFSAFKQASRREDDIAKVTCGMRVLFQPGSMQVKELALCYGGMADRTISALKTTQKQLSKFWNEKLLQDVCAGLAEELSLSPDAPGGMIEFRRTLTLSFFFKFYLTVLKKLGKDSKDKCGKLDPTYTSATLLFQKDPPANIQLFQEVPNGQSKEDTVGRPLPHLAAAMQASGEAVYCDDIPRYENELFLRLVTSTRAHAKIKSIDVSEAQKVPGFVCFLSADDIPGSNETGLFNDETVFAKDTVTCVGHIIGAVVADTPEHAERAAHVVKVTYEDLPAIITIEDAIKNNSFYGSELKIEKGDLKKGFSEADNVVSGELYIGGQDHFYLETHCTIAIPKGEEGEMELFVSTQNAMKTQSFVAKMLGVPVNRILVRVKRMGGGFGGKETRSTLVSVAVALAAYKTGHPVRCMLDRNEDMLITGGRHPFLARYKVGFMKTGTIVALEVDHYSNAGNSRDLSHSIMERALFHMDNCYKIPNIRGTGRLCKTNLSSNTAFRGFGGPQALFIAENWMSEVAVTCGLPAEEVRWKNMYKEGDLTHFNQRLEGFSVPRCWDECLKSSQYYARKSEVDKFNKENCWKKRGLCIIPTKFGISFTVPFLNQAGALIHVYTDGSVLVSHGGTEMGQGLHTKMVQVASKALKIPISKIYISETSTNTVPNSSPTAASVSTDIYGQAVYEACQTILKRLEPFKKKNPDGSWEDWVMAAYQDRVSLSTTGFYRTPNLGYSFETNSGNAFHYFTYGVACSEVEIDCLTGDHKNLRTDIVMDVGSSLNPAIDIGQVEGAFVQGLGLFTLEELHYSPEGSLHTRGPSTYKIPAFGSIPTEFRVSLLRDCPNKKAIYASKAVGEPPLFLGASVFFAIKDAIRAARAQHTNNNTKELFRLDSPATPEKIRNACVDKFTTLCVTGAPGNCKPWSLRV

Turning to `Cc1nc(-c2cccc(OC(C)C)c2)sc1C(=O)O` [Example 1, 2-(3-isopropoxyphenyl)-4-methyl-5-thiazolecarboxylic acid], half-maximal inhibition in assay [1] (IC50) was put at 67 nM. Also, the inhibition at 1 µM in assay [2] came to 83%.
Turning to `CCCCCCOc1ccc(-c2nc(C)c(C(=O)O)s2)cc1[N+](=O)[O-]` [Example 41, 2-(4-n-Hexyloxy-3-nitrophenyl)-4-methyl-5-thiazolecarboxylic acid], the IC50 in assay [1] was 0.32 nM. Also, the inhibition in vivo at 1 mg/kg in assay [3] turned out to be 92%.
The like results for `CCC(CC)COc1ccc(-c2nc(C)c(C(=O)O)s2)cc1[N+](=O)[O-]` [Example 42, 2-(4-(2-Ethylbutyloxy)-3-nitrophenyl)-4-methyl-5-thiazolecarboxylic acid] were, in that order, 2 nM and 75%.
Consider `Cc1nc(-c2ccc(N3CCN(C)CC3)c([N+](=O)[O-])c2)sc1C(=O)O` [Example 46, 4-methyl-2-(4-(4-methylpiperazinyl)-3-nitrophenyl)-5-thiazolecarboxylic acid], for which the IC50 in assay [1] worked out at 2.4 nM. The inhibition in vivo at 1 mg/kg in assay [3] is 75%.
The like results for `Cc1nc(-c2ccc(OCC(C)C)c(Cl)c2)sc1C(=O)O` [Example 51, 2-(3-Chloro-4-isobutyloxyphenyl)-4-methyl-5-thiazolecarboxylic acid] were, in that order, 2.1 nM and 78%.
The like results for `CCC(CC)COc1ccc(-c2nc(C)c(C(=O)O)s2)cc1Cl` [Example 53, 2-(3-Chloro-4-(2-ethylbutyloxy)phenyl)-4-methYl-5-thiazolecarboxylic acid] were, in that order, 2.7 nM and 29%.
In the same order, the values of `Cc1nc(-c2ccc(OCC(C)(C)C)c(Cl)c2)sc1C(=O)O` [Example 54, 2-(3-Chloro-4-neopentyloxyphenYl)-4-methyl-5-thiazolecarboxylic acid] are 2.9 nM and 12%.
For `CCOCCOc1ccc(-c2nc(C)c(C(=O)O)s2)cc1Cl` [Example 55, 2-(3-Chloro-4-(2-ethoxyethyloxy)phenyl)-4-methyl-5-thiazolecarboxylic acid], inhibition in assay [1] was half-maximal at 7 nM (IC50). The inhibition in vivo at 1 mg/kg in assay [3] stood at 45%.
In the same order, the values of `Cc1nc(-c2ccc(OCCN3CCOCC3)c(Cl)c2)sc1C(=O)O` [Example 56, 2-(3-Chloro-4-(2-morpholinoethyloxy)phenyl)-4-methyl-5-thiazolecarboxylic acid] are 1.5 nM and 50%.
The like results for `Cc1nc(-c2ccc(OCCN3CCCCC3)c(Cl)c2)sc1C(=O)O` [Example 57, 2-(3-Chloro-4-(2-piperidinoethyloxy)phenyl)-4-methyl-5-thiazolecarboxylic acid] were, in that order, 1.2 nM and 15%.
In the same order, the values of `Cc1nc(-c2ccc(N3CCOCC3)c(Cl)c2)sc1C(=O)O` [Example 59, 2-(3-chloro-4-morpholinophenyl)-4-methyl-5-thiazolecarboxylic acid] are 0.38 nM and 62%.
In assay [1], `Cc1nc(-c2ccc(N3CCCCC3)c(Cl)c2)sc1C(=O)O` [Example 60, 2-(3-Chloro-4-piperidinophenyl)-4-methyl-5-thiazolecarboxylic acid] registered an IC50 of 0.24 nM. Besides, the inhibition in vivo at 1 mg/kg in assay [3] was 55%.
In the same order, the values of `Cc1nc(-c2ccc(Sc3ccc(Cl)cc3)c(Cl)c2)sc1C(=O)O` [Example 61, 2-(3-Chloro-4-(4-chlorophenylthio)phenyl)-4-methyl-5-thiazolecarboxylic acid] are 2 nM and 32%.
Take `Cc1nc(-c2ccc([S+]([O-])c3ccc(Cl)cc3)c(Cl)c2)sc1C(=O)O` (centres unmarked) [Example 62, 2-(3-chloro-4-(4'-chlorophenylsulfinyl)phenyl)-4-methyl-5thiazolecarboxylic acid]: half-maximal inhibition in assay [1] (IC50) was put at 0.64 nM. Moreover, the inhibition in vivo at 1 mg/kg in assay [3] came out at 35%.
The like results for `Cc1nc(-c2ccc(OCC(C)C)c(Br)c2)sc1C(=O)O` [Example 63, 2-(3-bromo-4-isobutyloxyphenyl)-4-methyl-5-thiazolecarboxylic acid] were, in that order, 0.94 nM and 35%.
In assay [1], `Cc1nc(-c2ccc(Sc3ccc(Cl)cc3)c(Br)c2)sc1C(=O)O` [Example 65, 2-(3-Bromo-4-(4-chlorophenylthio)phenyl)-4-methyl-5-thiazolecarboxylic acid] yielded a half-maximal inhibitory concentration (IC50) of 1.6 nM. In assay [3], the inhibition in vivo at 1 mg/kg was 42%.
`Cc1nc(-c2ccc(N3CCCCC3)c(Br)c2)sc1C(=O)O` [Example 66, 2-(3-Bromo-4-piperidinophenyl)-4-methyl-5-thiazolecarboxylic acid]: the IC50 in assay [1] is 0.63 nM. Also, the inhibition in vivo at 1 mg/kg in assay [3] stood at 65%.
In the same order, the values of `Cc1nc(-c2cc(Cl)c(OC(C)C)c(Cl)c2)sc1C(=O)O` [Example 68, 2-(3,5-dichloro-4-isopropoxyphenyl)-4-methyl-5-thiazolecarboxylic acid] are 2.2 nM and 13%.
In the same order, the values of `Cc1nc(-c2cc(Cl)c(OCC(C)C)c(Cl)c2)sc1C(=O)O` [Example 69, 2-(3,5-Dichloro-4-isobutyloxyphenyl)-4-methyl-5-thiazolecarboxylic acid] are 1.5 nM and 55%.
The like results for `CCC(CC)COc1c(Cl)cc(-c2nc(C)c(C(=O)O)s2)cc1Cl` [Example 70, 2-(3,5-Dichloro-4-(2-ethylbutyloxy)phenyl)-4-methyl-5-thiazolecarboxylic acid] were, in that order, 0.8 nM and 15%.
`Cc1nc(-c2cc(Cl)c(OCCC(C)C)c(Cl)c2)sc1C(=O)O` [Example 71, 2-(3,5-Dichloro-4-isopentyloxyphenyl)-4-methyl-5-thiazolecarboxylic acid] registered an IC50 in assay [1] of 1.5 nM. In addition, the inhibition in vivo at 1 mg/kg in assay [3] stood at 50%.
The like results for `Cc1nc(-c2cc(Cl)c(OCCN3CCOCC3)c(Cl)c2)sc1C(=O)O` [Example 72, 2-(3,5-Dichloro-4-(2-morpholinoethyloxy)phenyl)-4-methyl-5-thiazolecarboxylic acid] were, in that order, 0.7 nM and 48%.
The like results for `Cc1nc(-c2ccc(OCC(C)(C)C)c(C#N)c2)sc1C(=O)O` [Example 78, 2-(3-Cyano-4-neopentyloxyphenyl)-4-methyl-5-thiazolecarboxylic acid] were, in that order, 1.9 nM and 91%.
The like results for `Cc1nc(-c2ccc(OCCC(C)C)c(C#N)c2)sc1C(=O)O` [Example 79, 2-(3-Cyano-4-isopentyloxyphenyl)-4-methyl-5-thiazolecarboxylic acid] were, in that order, 2.2 nM and 89%.
For `CCOCCOc1ccc(-c2nc(C)c(C(=O)O)s2)cc1C#N` [Example 80, 2-(3-CYano-4-(2-ethoxyethyloxy)phenyl)-4-methyl-5-thiazolecarboxylic acid], in assay [1], the midpoint of inhibition, the IC50, lay at 1.9 nM. The inhibition in vivo at 1 mg/kg in assay [3] worked out at 87%.
`Cc1nc(-c2ccc(N3CCOCC3)c(C#N)c2)sc1C(=O)O` [Example 81, 2-(3-Cyano-4-morpholinophenyl)-4-methyl-5-thiazolecarboxylic acid] displayed an IC50 in assay [1] of 1.7 nM. Moreover, the inhibition in vivo at 1 mg/kg in assay [3] came to 91%.
The like results for `Cc1nc(-c2ccc(N3CCCCC3)c(C#N)c2)sc1C(=O)O` [Example 82, 2-(3-Cyano-4-piperidinophenyl)-4-methyl-5-thiazolecarboxylic acid] were, in that order, 2.7 nM and 93%.
The like results for `Cc1nc(-c2ccc(OCC(C)C)c(C(F)(F)F)c2)sc1C(=O)O` [Example 83, 2-(4-isobutyloxy-3-trifluomethylphenyl)-4-methyl-5-thiazolecarboxylic acid] were, in that order, 1.1 nM and 86%.
In the same order, the values of `Cc1nc(-c2ccc(OCC(C)(C)C)c(C(F)(F)F)c2)sc1C(=O)O` [Example 84, 4-Methyl-2-(4-neopentyloxy-3-trifluoromethylphenyl)-5-thiazolecarboxylic acid] are 2.9 nM and 80%.
Compound `Cc1nc(-c2ccc(OCC(C)(C)C)c(I)c2)sc1C(=O)O` [Example 85, 2-(3-iodo-4-neopentyloxyphenyl)-4-methyl-5-thiazolecarboxylic acid] registered a half-inhibitory concentration (IC50) in assay [1] of 0.12 nM. The inhibition in vivo at 1 mg/kg in assay [3] worked out at 77%.
In the same order, the values of `Cc1nc(-c2ccc(OCC(C)C)c(C=O)c2)sc1C(=O)O` [Example 86, 2-(3-formyl-4-isobutyloxyphenyl)-4-methyl-5-thiazolecarboxylic acid] are 0.51 nM and 72%.

The record behind these values is patent publication US5614520A, “2-arylthiazole derivatives and pharmaceutical composition thereof” (priority 1990, dated 1997).
